# Values joined by “and” are separate entries in the source; they are usually repeats but may differ in a detail not shown here. Equal values may be shown once. Read-outs that look alike come from different tables or passages of the source.
# Key:
# [1] = 1% DBM in the diet, mice; cited from earlier work
# [2] = tested on: HCoV-OC43; assay: microbe, parasite or virus in culture; format: cell-based
# [3] = tested on: HCoV-OC43; format: cell-based
# [4] = Metabolic stability in mouse liver microsomes; format: in vitro ADME; settings: average, read-out: T1/2 of metabolism
# Procedure: Thus, a pharmacokinetic study was performed for DBM in Sprague-Dawley (SD) rats. Following oral administration of menstruum or DBM at 200 mpk, blood samples from the rats were collected at 2 min, 5 min, 15 min, 30 min, 1 h, 2 h, 4 h, 8 h, and 24 h posttreatment. The concentration of DBM in the plasma was determined by liquid chromatography with tandem mass spectrometry (LC-MS/MS). The minimum effective concentration (MEC) line in the graph represents the EC95 value of DBM (Fig 3C). […] To analyse the metabolic stability of DBM, we incubated human and mouse liver microsomes with DBM. The T1/2 of metabolism was an average of 13.92 min in human liver microsomes and 4.84 min in mouse liver microsomes.
# [5] = target: caspase-6 (Homo sapiens, UniProt P55212); format: cell-based; settings: STS-treated cells
# Sequence of caspase-6 (P55212 194-293): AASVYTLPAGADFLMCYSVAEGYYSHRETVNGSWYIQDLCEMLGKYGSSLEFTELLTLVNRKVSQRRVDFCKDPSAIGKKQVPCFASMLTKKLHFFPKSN
# Sequence of caspase-6 (P55212 24-179): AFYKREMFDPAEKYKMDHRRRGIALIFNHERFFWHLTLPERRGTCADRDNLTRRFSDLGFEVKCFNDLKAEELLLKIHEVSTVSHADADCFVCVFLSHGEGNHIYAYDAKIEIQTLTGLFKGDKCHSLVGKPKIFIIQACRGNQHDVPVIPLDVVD
# [6] = in vivo; settings: Sprague-Dawley, rat, po, 200 mg/kg
# [7] = tested on: HCoV-OC43; settings: DBM 400 mpk QD
# [8] = tested on: HCoV-229E; assay: Antiviral activity in vitro, viral RNA copies by qRT-PCR, HCoV-229E in Huh-7 cells; format: cell-based; settings: for EC50 (229E, Huh-7): inhibition at the concentration: replicates
# [9] = tested on: HCoV-OC43; assay: Antiviral activity in vitro, qRT-PCR, HCoV-OC43 in Huh-7 cells; format: cell-based; settings: for HCoV-OC43, Huh-7: inhibition at the concentration (Fig2B): replicates
# [10] = tested on: HCoV-OC43; assay: Antiviral activity in vitro, qRT-PCR, HCoV-OC43 in RD cells; format: cell-based; settings: for EC50 (OC43, RD): inhibition at the concentration: replicates
# [11] = tested on: HCoV-OC43; assay: Viral release (intracellular versus supernatant viral RNA); format: cell-based
# Procedure: To obtain further insight into the stage at which DBM inhibits the replication of HCoV-OC43 and other HCoVs, RD cells were incubated with compounds, including DBM, remdesivir (RDV), and chloroquine (CQ), at different stages of viral infection. Viral RNA from the supernatant was extracted and quantitatively analysed via qRT-PCR. […] For the viral binding assay, cells were cultured in the presence or absence of DBM at different concentrations for 1 hour before being infected with HCoV-OC43 at an MOI of 50, and then were placed on ice for 2 hours for the viral particles to bind to the membrane of the host cells, followed by washing with PBS. […] To determine whether DBM influences viral release, we quantified viral RNA both intracellularly and in the supernatant.
# A) Efficacy of DBM, remdesivir (RDV), and chloroquine (CQ) in inhibiting virus replication at different stages of administration. […] C) Fluorescence images of cell-cell fusion induced by the transient expression of HCoV-OC43 spike proteins and eGFP (green) in RD cells. […] D) Confocal fluorescence microscopy images showing HCoV-OC43 internalization. E) Quantification of intracellular viral particles per cell, based on images obtained from confocal fluorescence microscopy. […] Data were statistically analysed with Student’s T test. *: p ≤ 0.05, **: p ≤ 0.01, ***: p ≤ 0.001, ****: p ≤ 0.0001; ns, not significant. […]
# [12] = tested on: Huh-7 cells; format: cell-based
smiles,measurement,setting,value
"O=C(CC(=O)c1ccccc1)c1ccccc1 [DBM, dibenzoylmethane]",safety of feeding in the diet,[1],safe
same,resistance of the virus after consecutive passages,[2]; 17 consecutive passages in the presence of DBM,did not develop significant resistance
same,EC50,"[2]; Betacoronavirus 1, OC43, read-out: EC50 of DBM against HCoV-OC43 passaged with DBM",850 nM
same,EC50,"[2]; Betacoronavirus 1, OC43, read-out: EC50 of DBM against HCoV-OC43 passaged with DMSO",570 nM
same,viral inhibition,"[2]; DBM (virus passaged with DBM), concentration 1.7",93.4 and 85.2
same,viral inhibition,"[2]; DBM (virus passaged with DBM), concentration 5.0",99.5
same,viral inhibition,"[2]; column head DMSO (virus passaged with DMSO), concentration 5.0",100.0
same,antiviral activity in CASP6 knockout cell pools,[3]; RD cells,decreased
same,Viral inhibition (Fig5K),"[3]; concentration 2, RD-CASP6 KO cells",35.0 and 37.4 and 35.2
same,Viral inhibition (Fig5K),"[3]; concentration 2, RD-Scramble cells",87.9 and 90.6 and 92.3
same,Viral inhibition (Fig5K),"[3]; concentration 20, RD-Scramble cells",81.0 and 81.9 and 83.3
same,half-life,[4],4.84 min
same,levels of cleaved HCoV-OC43 and SARS-CoV-2 nucleocapsid proteins,[5],significantly reduces
same,AUC(0-t),[6],34300 ng·h/mL
same,Cmax,[6],4760 ng/mL
same,half-life,[6],2.91 h
same,body weight loss during the experiment,[7]; VV116 25 mpk QD,did not show any body weight loss
same,"viral copy numbers in the brain, lungs, and kidneys compared with the vehicle group",[7]; 5 days post infection,significantly fewer viral copy numbers
same,viral load in the brains lower than in the vehicle group,[7]; Day 5,approximately 6 logs
same,EC50,"[8]; Human coronavirus 229E, Huh-7, 24 h, read-out: EC50 HCoV-229E (Huh-7)",6710 nM
same,"EC50 (229E, Huh-7): inhibition at the concentration",[8]; conc. 0.1 (unit not given),60.8 and 22.3 and 20.2
same,"EC50 (229E, Huh-7): inhibition at the concentration",[8]; conc. 0.2 (unit not given),25.5 and 35.2
same,"EC50 (229E, Huh-7): inhibition at the concentration",[8]; conc. 0.7 (unit not given),37.7 and 44.1
same,"EC50 (229E, Huh-7): inhibition at the concentration",[8]; conc. 2.2 (unit not given),13.1 and 6.1 and 18.7
same,"EC50 (229E, Huh-7): inhibition at the concentration",[8]; conc. 6.7 (unit not given),65 and 69.4 and 38.7
same,"EC50 (229E, Huh-7): inhibition at the concentration",[8]; conc. 20 (unit not given),91.1 and 94.4 and 99.5
same,EC50,"[9]; Betacoronavirus 1, OC43, Huh-7, 24 h, read-out: EC50 HCoV-OC43 (Huh-7)",90 nM
same,"HCoV-OC43, Huh-7: inhibition at the concentration (Fig2B)",[9]; conc. 0.1 (unit not given),51.3 and 53.7 and 47.2
same,"HCoV-OC43, Huh-7: inhibition at the concentration (Fig2B)",[9]; conc. 0.2 (unit not given),64.6 and 65.3 and 60.0
same,"HCoV-OC43, Huh-7: inhibition at the concentration (Fig2B)",[9]; conc. 0.7 (unit not given),95.4 and 95.1 and 94.4
same,"HCoV-OC43, Huh-7: inhibition at the concentration (Fig2B)",[9]; conc. 2.2 (unit not given),98.2 (2×) and 98.0
same,"HCoV-OC43, Huh-7: inhibition at the concentration (Fig2B)",[9]; conc. 6.7 (unit not given),98.4
same,"HCoV-OC43, Huh-7: inhibition at the concentration (Fig2B)",[9]; conc. 20.0 (unit not given),98.3 (2×) and 98.5
same,EC50,"[10]; Betacoronavirus 1, OC43, RD, 24 h, read-out: EC50 HCoV-OC43 (RD)",350 nM
same,Viral RNA copies (Fig6B),"[10]; OC43, concentration 4",7.43E+03 and 9.55E+03 and 9.54E+03
same,Viral RNA copies (Fig6B),"[10]; OC43, concentration 20",3.88E+03 and 6.38E+03 and 7.34E+03
same,"EC50 (OC43, RD): inhibition at the concentration",[10]; conc. 0.1 (unit not given),-75.5 and -76.6 and -100.8
same,"EC50 (OC43, RD): inhibition at the concentration",[10]; conc. 0.2 (unit not given),23.1 and 21.4 and 22.1
same,"EC50 (OC43, RD): inhibition at the concentration",[10]; conc. 0.7 (unit not given),88.5 and 91.5 and 92
same,"EC50 (OC43, RD): inhibition at the concentration",[10]; conc. 2.2 (unit not given),99.6
same,"EC50 (OC43, RD): inhibition at the concentration",[10]; conc. 6.7 (unit not given),99.9
same,"EC50 (OC43, RD): inhibition at the concentration",[10]; conc. 20 (unit not given),99.8
same,proportion of viral RNAs released into the supernatant versus controls,[11],No significant difference
same,Proportion of release of HCoV-OC43 RNA,"[11]; DBM-treated samples, replicates",0.9 and 1.5 and 5.8
same,treated/untreated,[12],1.279 and 1.276 and 1.31 and 1.204 and 1.484

# — PMC12431657, “Discovery and mechanistic insights of dibenzoylmethane as a broad spectrum inhibitor of coronavirus” (PLOS Pathogens, 2025)
